From ChEMBL document CHEMBL1201862, “PubChem BioAssay data set” (2004)
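Step 1: Grow cells in 96-well plates. Step 2: Expose to compound for 48 hours at 5 concentrations. Step 3: Interpolate endpoints linearly; if unreached, use highest concentration. The concentration for 50% growth inhibition is given as GI50.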 Active and inactive are the calls of the source. Cut-off read from the data, not from the text of the source: active = GI50 up to about 1.1 µM and inactive = higher.

Experiments:
Assay in all cases: NCI tumour cell line growth inhibition, 48 h
HCT-116 = system: HCT-116
BT-549 = system: BT-549
NCI-H226 = system: NCI-H226
TK-10 = system: TK-10
RXF 393 = system: RXF 393
HT-29 = system: HT-29
NCI-H460 = system: NCI-H460
DU-145 = system: DU-145
IGROV-1 = system: IGROV-1
SW-620 = system: SW-620
OVCAR-3 = system: OVCAR-3
SK-MEL-2 = system: SK-MEL-2
ACHN = system: ACHN
UACC-62 = system: UACC-62
CAKI-1 = system: CAKI-1
EKVX = system: EKVX
NCI/ADR-RES = system: NCI/ADR-RES
K562 = system: K562
RPMI-8226 = system: RPMI-8226
MCF7 = system: MCF7
KM12 = system: KM12
SNB-19 = system: SNB-19
HCT-15 = system: HCT-15
SK-MEL-28 = system: SK-MEL-28
HL-60 = system: HL-60
NCI-H23 = system: NCI-H23
HOP-92 = system: HOP-92
OVCAR-4 = system: OVCAR-4
LOX IMVI = system: LOX IMVI
MOLT-4 = system: MOLT-4
SR = system: SR
A549 = system: A549
NCI-H522 = system: NCI-H522
MDA-MB-435 = system: MDA-MB-435
UO-31 = system: UO-31
SF-295 = system: SF-295
SNB-75 = system: SNB-75
OVCAR-8 = system: OVCAR-8
MDA-N = system: MDA-N
PC-3 = system: PC-3
COLO 205 = system: COLO 205
SK-MEL-5 = system: SK-MEL-5
HOP-62 = system: HOP-62
SK-OV-3 = system: SK-OV-3
Malme-3M = system: Malme-3M
SF-268 = system: SF-268
T47D = system: T47D
OVCAR-5 = system: OVCAR-5
U-251 = system: U-251
SN12C = system: SN12C
UACC-257 = system: UACC-257
SF-539 = system: SF-539
A498 = system: A498
MDA-MB-231 = system: MDA-MB-231
786-0 = system: 786-0
M14 = system: M14
Hs-578T = system: Hs-578T
CCRF-CEM = system: CCRF-CEM
HCC 2998 = system: HCC 2998

O=C(O)C1C(C(=O)O)C23CC2(C(=O)O)C2(C(=O)O)CCC3=C3CCCC312 (stereo unspecified)
GI50 (HCT-116): 6.85 µM (inactive) | GI50 (BT-549): 17.2 µM (inactive) | GI50 (NCI-H226): 10.4 µM (inactive) | GI50 (TK-10): 11.1 µM (inactive) | GI50 (RXF 393): 6.84 µM (inactive) | GI50 (HT-29): 7.45 µM (inactive) | GI50 (NCI-H460): 4.99 µM (inactive) | GI50 (DU-145): 11.7 µM (inactive) | GI50 (IGROV-1): 7.93 µM (inactive) | GI50 (SW-620): 6.34 µM (inactive) | GI50 (OVCAR-3): 2.5 µM (inactive) | GI50 (SK-MEL-2): 14 µM (inactive) | GI50 (ACHN): 9.51 µM (inactive) | GI50 (UACC-62): 10.5 µM (inactive) | GI50 (CAKI-1): 20.2 µM (inactive) | GI50 (EKVX): 11.6 µM (inactive) | GI50 (NCI/ADR-RES): 20.7 µM (inactive) | GI50 (K562): 12.7 µM (inactive) | GI50 (RPMI-8226): 6.01 µM (inactive) | GI50 (MCF7): 11.7 µM (inactive) | GI50 (KM12): 14 µM (inactive) | GI50 (SNB-19): 7.93 µM (inactive) | GI50 (HCT-15): 15.1 µM | GI50 (SK-MEL-28): 5.97 µM (inactive) | GI50 (HL-60): 3.44 µM (inactive) | GI50 (NCI-H23): 7.96 µM (inactive) | GI50 (HOP-92): 8.3 µM (inactive) | GI50 (OVCAR-4): 16 µM (inactive) | GI50 (LOX IMVI): 10.6 µM (inactive) | GI50 (MOLT-4): 4.99 µM (inactive) | GI50 (SR): 2.24 µM (inactive) | GI50 (A549): 6.34 µM (inactive) | GI50 (NCI-H522): 3.73 µM (inactive) | GI50 (MDA-MB-435): 7.73 µM (inactive) | GI50 (UO-31): 8.97 µM (inactive) | GI50 (SF-295): 4.13 µM (inactive) | GI50 (SNB-75): 11.2 µM (inactive) | GI50 (OVCAR-8): 10.7 µM (inactive) | GI50 (MDA-N): 4.79 µM (inactive) | GI50 (PC-3): 5.45 µM (inactive) | GI50 (COLO 205): 3.81 µM (inactive) | GI50 (SK-MEL-5): 5.22 µM (inactive) | GI50 (HOP-62): 4.44 µM (inactive) | GI50 (SK-OV-3): 3.89 µM (inactive) | GI50 (Malme-3M): 4.21 µM (inactive) | GI50 (SF-268): 4.51 µM (inactive) | GI50 (T47D): 11.8 µM (inactive) | GI50 (OVCAR-5): 16.6 µM (inactive) | GI50 (U-251): 5.97 µM (inactive) | GI50 (SN12C): 8.87 µM (inactive) | GI50 (UACC-257): 3.39 µM (inactive) | GI50 (SF-539): 4.67 µM (inactive) | GI50 (A498): 18.3 µM (inactive) | GI50 (MDA-MB-231): 12.1 µM (inactive) | GI50 (786-0): 10.3 µM (inactive) | GI50 (M14): 6.84 µM (inactive) | GI50 (Hs-578T): 2.67 µM (inactive)

N#CCCN(CCCN(C(=O)Nc1ccc(NC(=O)N(CCCN(CCC#N)C(N)=O)c2ccccc2)cc1)c1ccccc1)C(N)=O
GI50 (HCT-116): > 100 µM (inactive) | GI50 (BT-549): > 100 µM (inactive) | GI50 (NCI-H226): > 100 µM (inactive) | GI50 (TK-10): > 100 µM (inactive) | GI50 (RXF 393): > 100 µM (inactive) | GI50 (HT-29): > 100 µM (inactive) | GI50 (NCI-H460): > 100 µM (inactive) | GI50 (DU-145): > 100 µM (inactive) | GI50 (SW-620): > 100 µM (inactive) | GI50 (OVCAR-3): > 100 µM (inactive) | GI50 (SK-MEL-2): > 100 µM (inactive) | GI50 (CCRF-CEM): 87.5 µM (inactive) | GI50 (ACHN): > 100 µM (inactive) | GI50 (UACC-62): > 100 µM (inactive) | GI50 (CAKI-1): > 100 µM (inactive) | GI50 (EKVX): > 100 µM (inactive) | GI50 (NCI/ADR-RES): > 100 µM (inactive) | GI50 (K562): > 100 µM (inactive) | GI50 (RPMI-8226): > 100 µM (inactive) | GI50 (MCF7): 4.72 µM (inactive) | GI50 (KM12): > 100 µM (inactive) | GI50 (SNB-19): > 100 µM (inactive) | GI50 (HCT-15): > 100 µM | GI50 (SK-MEL-28): > 100 µM (inactive) | GI50 (HL-60): > 100 µM (inactive) | GI50 (NCI-H23): > 100 µM (inactive) | GI50 (HOP-92): > 100 µM (inactive) | GI50 (OVCAR-4): > 100 µM (inactive) | GI50 (LOX IMVI): > 100 µM (inactive) | GI50 (MOLT-4): > 100 µM (inactive) | GI50 (SR): > 100 µM (inactive) | GI50 (A549): > 100 µM (inactive) | GI50 (NCI-H522): > 100 µM (inactive) | GI50 (MDA-MB-435): > 100 µM (inactive) | GI50 (UO-31): > 100 µM (inactive) | GI50 (SF-295): > 100 µM (inactive) | GI50 (SNB-75): 67.5 µM (inactive) | GI50 (OVCAR-8): > 100 µM (inactive) | GI50 (MDA-N): > 100 µM (inactive) | GI50 (PC-3): > 100 µM (inactive) | GI50 (COLO 205): > 100 µM (inactive) | GI50 (SK-MEL-5): > 100 µM (inactive) | GI50 (HOP-62): > 100 µM (inactive) | GI50 (SK-OV-3): > 100 µM (inactive) | GI50 (Malme-3M): > 100 µM (inactive) | GI50 (SF-268): > 100 µM (inactive) | GI50 (HCC 2998): > 100 µM (inactive) | GI50 (T47D): > 100 µM (inactive) | GI50 (OVCAR-5): > 100 µM (inactive) | GI50 (U-251): > 100 µM (inactive) | GI50 (UACC-257): > 100 µM (inactive) | GI50 (SF-539): > 100 µM (inactive) | GI50 (A498): > 100 µM (inactive) | GI50 (MDA-MB-231): > 100 µM (inactive) | GI50 (786-0): > 100 µM (inactive) | GI50 (M14): > 100 µM (inactive) | GI50 (Hs-578T): > 100 µM (inactive)

COc1cc(/C=C/C(=O)N[C@@H]2C(=O)N3[C@@H]2SC(C)(C)[C@@H]3C(=O)O)ccc1O
GI50 (HCT-116): > 100 µM (inactive) | GI50 (BT-549): > 100 µM (inactive) | GI50 (NCI-H226): > 100 µM (inactive) | GI50 (TK-10): > 100 µM (inactive) | GI50 (RXF 393): > 100 µM (inactive) | GI50 (HT-29): > 100 µM (inactive) | GI50 (NCI-H460): > 100 µM (inactive) | GI50 (DU-145): > 100 µM (inactive) | GI50 (SW-620): > 100 µM (inactive) | GI50 (OVCAR-3): > 100 µM (inactive) | GI50 (SK-MEL-2): > 100 µM (inactive) | GI50 (CCRF-CEM): > 100 µM (inactive) | GI50 (ACHN): > 100 µM (inactive) | GI50 (UACC-62): > 100 µM (inactive) | GI50 (CAKI-1): > 100 µM (inactive) | GI50 (EKVX): > 100 µM (inactive) | GI50 (NCI/ADR-RES): > 100 µM (inactive) | GI50 (K562): > 100 µM (inactive) | GI50 (RPMI-8226): > 100 µM (inactive) | GI50 (MCF7): > 100 µM (inactive) | GI50 (KM12): > 100 µM (inactive) | GI50 (SNB-19): > 100 µM (inactive) | GI50 (HCT-15): > 100 µM | GI50 (SK-MEL-28): > 100 µM (inactive) | GI50 (HL-60): > 100 µM (inactive) | GI50 (NCI-H23): > 100 µM (inactive) | GI50 (HOP-92): > 100 µM (inactive) | GI50 (OVCAR-4): > 100 µM (inactive) | GI50 (LOX IMVI): 75 µM (inactive) | GI50 (MOLT-4): > 100 µM (inactive) | GI50 (SR): > 100 µM (inactive) | GI50 (A549): > 100 µM (inactive) | GI50 (NCI-H522): > 100 µM (inactive) | GI50 (MDA-MB-435): > 100 µM (inactive) | GI50 (UO-31): > 100 µM (inactive) | GI50 (SF-295): > 100 µM (inactive) | GI50 (SNB-75): > 100 µM (inactive) | GI50 (OVCAR-8): > 100 µM (inactive) | GI50 (MDA-N): > 100 µM (inactive) | GI50 (PC-3): > 100 µM (inactive) | GI50 (COLO 205): > 100 µM (inactive) | GI50 (SK-MEL-5): > 100 µM (inactive) | GI50 (HOP-62): > 100 µM (inactive) | GI50 (SK-OV-3): > 100 µM (inactive) | GI50 (SF-268): > 100 µM (inactive) | GI50 (HCC 2998): > 100 µM (inactive) | GI50 (T47D): > 100 µM (inactive) | GI50 (OVCAR-5): > 100 µM (inactive) | GI50 (U-251): > 100 µM (inactive) | GI50 (SN12C): > 100 µM (inactive) | GI50 (UACC-257): > 100 µM (inactive) | GI50 (SF-539): > 100 µM (inactive) | GI50 (A498): > 100 µM (inactive) | GI50 (MDA-MB-231): > 100 µM (inactive) | GI50 (786-0): > 100 µM (inactive) | GI50 (M14): > 100 µM (inactive) | GI50 (Hs-578T): > 100 µM (inactive)
